{"source": "patent US10149887B2", "about": "“Peptides and peptidomimetics in combination with t cell activating and/or checkpoint inhibiting agents for cancer treatment” (CanBas Co., Ltd., priority 2015, dated 2018)", "key": {"[1]": {"tested_on": "Jurkat cells", "test": "G2 checkpoint abrogation, flow cytometry of bleomycin treated Jurkat cells", "format": "cell-based, human"}, "[2]": {"tested_on": "DU-145", "test": "G2 checkpoint abrogation by CBP501 combined with cis-platin, flow cytometry", "format": "cell-based", "details": "DU-145, prostate, MLH1; cis-platin 3 μg/ml 3 hr, then 45 hr", "protocol": "(§1) The medium was aspirated, fresh medium without these compounds was added and the cells were incubated for an additional 45 hr. The cells including floating cells were harvested using trypsin-EDTA solution, incubated with Krishan's solution and analyzed for DNA content by flow cytometry as previously described."}, "[3]": {"tested_on": "HCT116", "test": "G2 checkpoint abrogation by CBP501 combined with cis-platin, flow cytometry", "format": "cell-based", "details": "HCT116, colon, hMLH1; cis-platin 3 μg/ml 3 hr, then 45 hr", "protocol": "as §1"}, "[4]": {"tested_on": "HT-29", "test": "G2 checkpoint abrogation by CBP501 combined with cis-platin, flow cytometry", "format": "cell-based", "details": "HT-29, colon; cis-platin 3 μg/ml 3 hr, then 45 hr", "protocol": "as §1"}, "[5]": {"tested_on": "NCI-H226", "test": "G2 checkpoint abrogation by CBP501 combined with cis-platin, flow cytometry", "format": "cell-based", "details": "NCI-H226, lung, SCC; cis-platin 3 μg/ml 3 hr, then 45 hr", "protocol": "as §1"}, "[6]": {"tested_on": "NCI-H520", "test": "G2 checkpoint abrogation by CBP501 combined with cis-platin, flow cytometry", "format": "cell-based", "details": "NCI-H520, lung, SCC; cis-platin 3 μg/ml 3 hr, then 45 hr", "protocol": "as §1"}, "[7]": {"tested_on": "Panc1", "test": "G2 checkpoint abrogation by CBP501 combined with cis-platin, flow cytometry", "format": "cell-based", "details": "Panc1, pancreas; cis-platin 3 μg/ml 3 hr, then 45 hr", "protocol": "as §1"}, "[8]": {"tested_on": "SK-OV-3", "test": "G2 checkpoint abrogation by CBP501 combined with cis-platin, flow cytometry", "format": "cell-based", "details": "SK-OV-3, ovary, hMLH1; cis-platin 3 μg/ml 3 hr, then 45 hr", "protocol": "as §1"}, "[9]": {"tested_on": "SW620", "test": "G2 checkpoint abrogation by CBP501 combined with cis-platin, flow cytometry", "format": "cell-based", "details": "SW620, colon; cis-platin 3 μg/ml 3 hr, then 45 hr", "protocol": "as §1"}, "[10]": {"tested_on": "SW900", "test": "G2 checkpoint abrogation by CBP501 combined with cis-platin, flow cytometry", "format": "cell-based", "details": "SW900, lung, SCC; cis-platin 3 μg/ml 3 hr, then 45 hr", "protocol": "as §1"}, "[11]": {"tested_on": "MIAPaCa2", "test": "Sensitization of MIAPaCa2 to bleomycin or adriamycin (sub-G1 population, flow cytometry)", "format": "cell-based, human", "details": "bleomycine 10 μg/ml or adriamycin 1 μg/ml, 3 hours, then 21 hours", "text": "FIGS. 3A and 3B Human pancreatic cancer derived cell line MIAPaCa2 treated with (FIG. 3A) bleomycin (Bleo) or (FIG. 3B) adriamycin (ADR) with various doses of compounds. Harvested cells were stained for their DNA and analyzed with flow cytometry. The % population of sub-G1 cells are indicated as dead cells.\nThe G2 checkpoint abrogating activity of various compounds at different doses on human pancreatic cancer derived cell line MIAPaCa2 treated with bleomycine (Bleo) or adriamycin (ADR) was studied. Briefly, cells were incubated with the compounds and bleomycine (10 μg/ml) or adriamycin (1 μg/ml) for 3 hours. The medium was changed and incubated for an additional 21 hours. Harvested cells were stained for DNA by propium iodide and analyzed with flow cytometry as previously described. The % of the sub-G1 cell population is indicated as dead cells in FIG. 3."}, "[12]": {"test": "Mouse serum treatment analysis (residual CBP501 by HPLC)", "format": "in vitro ADME", "details": "CBP501 10 mM, 37 degree"}, "[13]": {"tested_on": "MIAPaCa2 human pancreatic carcinoma cells", "test": "Colony formation analysis of MIAPaCa2 cells", "format": "cell-based", "details": "CBP501 10 μmM, cisplatin or oxaliplatin 1, 3 or 9 μg/ml, three hours, then 10 days", "method": "Briefly, cells were plated at 300 cells/well in 6 well plates, incubated overnight, and treated with the compounds for three hours. The medium was changed and cultured for an additional 10 days. Cells were subsequently fixed with 70% methanol, stained with 0.1% crystal violet and visualized."}, "[14]": {"test": "Maximal tolerated dose in mouse by single injection", "details": "in vivo, observed for a week"}, "[15]": {"tested_on": "M1 and M2 macrophages", "test": "Phagocytic activity of M1 and M2 macrophages (fluorescent beads, flow cytometry)", "format": "cell-based, human", "details": "in vitro", "protocol": "Referring to FIGS. 19A and 19B, macrophages were obtained by stimulating human peripheral blood mononuclear cells by 0.32 uM of PMA and removing all suspension cells 48 hours of PMA stimulation. The cells were further incubated with 50 ng/ml IFN-gamma, 10 ng/ml LPS to obtain M1 phenotype, and 20 ng/ml IL-4 to obtaine M2 macrophages. Both treatment was with or without CBP501. The phagocytic activity was monitored by using fluorescent labelled beads and flow cytometry."}, "[16]": {"tested_on": "RAW264.7", "test": "TNF release from macrophage cell line RAW264.7 (ELISA)", "format": "cell-based, mouse", "details": "0.1 or 1 μM CBP501, LPS", "protocol": "The released TNF were measured by ELISA."}, "[17]": {"tested_on": "calreticulin", "test": "Cell surface calreticulin exposure in CT26WT cells (FACS)", "format": "cell-based, murine", "details": "10-20 uM CDDP with 0.5 μM CBP501, 45 min", "protocol": "Two days later, the cells were collected and analyzed by FACS with specific calreticulin antibody and propidium iodide (n=3). Samples were compared by student's t-test. *P<0.05 **P<0.01, compared with untreated cells, and ^†P<0.05, ^††P<0.01, compared with the corresponding CDDP alone.\nAfter changing with fresh drug-free medium, cells were incubated for 24, 48, or 72 hours for Immunoblotting analysis of phospho-eIF2-alpha, for calreticulin analysis by FACS, or for HMGB1 ELISA.\nCells were collected and washed with PBS, followed by fixation with PBS containing 0.25% PFA for 5 minutes. The fixed cells were washed twice with ice-cold PBS and treated on ice with anti-calreticulin antibody (abcam) diluted with PBS containing 2% FBS (1/200) for 30 minutes. The primary antibody were removed with twice PBS containing 2% FBS wash and treated with alexa488-condjugated secondary antibody diluted with PBS containing 2% FBS (1/500) for 30 minutes at RT. The secondary antibody were removed with twice PBS and treated on ice with propidium iodide (1 ug/ml) for more than 5 minutes, followed by FACS analysis using FACSCalibur."}, "[18]": {"tested_on": "advanced solid tumors", "details": "monotherapy, cited from earlier work"}, "[19]": {"test": "Solubility in water"}}, "note": "Where two headings read alike, the source gives them in different places. Square brackets hold non-standard residues; d marks the D form. Peptide text beside a SMILES is read from it. dPhe(F5) = N[C@H](Cc1c(F)c(F)c(F)c(F)c1F)C(=O)O; dBpa = N[C@H](Cc1ccc(C(=O)c2ccccc2)cc1)C(=O)O; dCha = N[C@H](CC1CCCCC1)C(=O)O", "data": [{"molecule": "N=C(N)NCCC[C@@H](NC(=O)[C@@H](CCCNC(=N)N)NC(=O)[C@@H](CCC(N)=O)NC(=O)[C@@H](CCCNC(=N)N)NC(=O)[C@@H](CCCNC(=N)N)NC(=O)[C@@H](CCCNC(=N)N)NC(=O)[C@@H](CC1CCCCC1)NC(=O)[C@@H](Cc1c(F)c(F)c(F)c(F)c1F)NC(=O)[C@@H](CO)NC(=O)[C@@H](Cc1c[nH]c2ccccc12)NC(=O)[C@@H](CO)NC(=O)[C@H](N)Cc1ccc(C(=O)c2ccccc2)cc1)C(=O)O", "note": "[CBP501, (d-Bpa)(d-Ser)(d-Trp)(d-Ser)(d-Phe-2,3,4,5,6-F)(d-Cha)(d-Arg)(d-Arg)(d-Arg)(d-Gln)(d-Arg)(d-Arg)] (H-[dBpa][dS][dW][dS][dPhe(F5)][dCha][dR][dR][dR][dQ][dR][dR]-OH; N-terminus and C-terminus assumed)", "values": [{"measurement": "G2 checkpoint abrogating activity (in words)", "setting": "[1]; Jurkat cells with bleomycin 40 μg/ml", "result": "abrogated in a dose dependent manner"}, {"measurement": "G2 abrogating dose", "setting": "[1]; dose with 40 μg/ml bleomycine giving detectable G2 checkpoint abrogation, 24 hours", "result": "≥0.39", "unit": "µM"}, {"measurement": "G2 checkpoint abrogating dose of CBP501, cis-platin", "setting": "[2]", "result": 0.4, "unit": "µM"}, {"measurement": "G2 checkpoint abrogating dose of CBP501, cis-platin", "setting": "[3]", "result": "<2", "unit": "µM"}, {"measurement": "G2 checkpoint abrogating dose of CBP501, cis-platin", "setting": "[4]", "result": "<2", "unit": "µM"}, {"measurement": "G2 checkpoint abrogating dose of CBP501, cis-platin", "setting": "[5]", "result": 0.4, "unit": "µM"}, {"measurement": "G2 checkpoint abrogating dose of CBP501, cis-platin", "setting": "[6]", "result": ">10", "unit": "µM"}, {"measurement": "G2 checkpoint abrogating dose of CBP501, cis-platin", "setting": "[7]", "result": ">10", "unit": "µM"}, {"measurement": "G2 checkpoint abrogating dose of CBP501, cis-platin", "setting": "[8]", "result": 50, "unit": "µM"}, {"measurement": "G2 checkpoint abrogating dose of CBP501, cis-platin", "setting": "[9]", "result": ">10", "unit": "µM"}, {"measurement": "G2 checkpoint abrogating dose of CBP501, cis-platin", "setting": "[10]", "result": ">10", "unit": "µM"}, {"measurement": "Sensitization of MIAPaCa2 cells to bleomycin and adriamycin (% sub-G1, dead cells)", "setting": "[11]", "result": "sensitized MIAPaCa2 cells to both bleomycin and adriamycin in a dose dependent manner"}, {"measurement": "Residual peptide after 1 hr mouse serum treatment (Mouse serum treatment analysis)", "setting": "[12]", "result": ">90", "unit": "%"}, {"measurement": "Enhancement of cyto-toxic activity of cisplatin and oxaliplatin, colony formation", "setting": "[13]", "result": "enhanced the cyto-toxic activity of both cisplatin and oxaliplatin"}, {"measurement": "MTD at 1 week", "setting": "[14]; ip, single intra-peritoneal injection, read-out: MTD (ip)", "result": 98.8, "unit": "mg/kg"}, {"measurement": "MTD at 1 week", "setting": "[14]; single intravenous injection, read-out: MTD (iv)", "result": 10, "unit": "mg/kg"}, {"measurement": "Phagocytosis of M1 and M2 macrophages", "setting": "[15]", "result": "inhibited phagocytosis of both M1 and M2 macrophages"}, {"measurement": "Cytokine secretion (TNF release) of macrophages", "setting": "[16]", "result": "Inhibition of cytokine secretion"}, {"measurement": "Calreticulin exposure to the cell surface", "setting": "[17]", "result": "Positive effect"}, {"measurement": "Stable disease", "setting": "[18]; 60-min i.v. infusion days 1, 8, 15 every 28 days", "result": "Two patients achieved 7 cycles of treatment with stable disease"}, {"measurement": "Discontinuation due to toxicity", "setting": "[18]; days 1-8-15 every 28 days", "result": "No patients discontinued due to toxicity"}, {"measurement": "Solubility in water", "setting": "[19]", "result": "soluble in water"}]}]}
